Measurements: patent publication US11066630B2, “Device and method for analysis of tissue constructs” (The Johns Hopkins University, priority 2015, dated 2021)

Assays:
[1] = test system: primary human airway epithelial cells (NHBE); readout on HASM cells; assay: ASM cell contraction (OMTC stiffness) in response to infranatant from drug-treated epithelial cells exposed to compressive stress; type: cell-based; conditions: epithelial cells treated with drug; 30 cmH2O, 0h vs 3h pressure
Experimental: (§1) Primary human epithelial and smooth muscle cells were harvested from the proximal airways (first through third order bronchi) of donor lungs unsuitable for transplantation (Table I) in accordance with the Institutional Review Boards at the University of Pennsylvania. Primary normal human bronchial epithelial (NHBE) cells were grown in collagen-coated flasks (GIBCO) using serum-free BEGM Bronchial Epithelial Cell Growth Medium™ with BulletKit™ Supplements (Lonza) and subsequently trypsinized and seeded onto porous polycarbonate membranes (either inside microfluidic devices or on transwell inserts) at 100,000 cells/cm^2. The polycarbonate membranes were coated with collagen type I (30 μg/ml; GIBCO) at 37° C. for 18 h before cell seeding. After NHBE cells reached confluence (within 3-5 days), the apical medium was removed and the basal medium was replaced with differentiation medium (PneumaCult-ALI™ Medium and Supplements, StemCell Technologies). The NHBE cells were maintained at the ALI for 2-3 weeks, until they differentiated into a pseudostratified layer. Excess mucus on the air side was washed away with warm PBS weekly. […]
Magnetic twisting cytometry with optical detection was used to quantitatively assess dynamic changes in cell stiffness as an indicator of single-cell contraction or relaxation of HASM cells, as previously described. […]

[2] = test system: airway epithelial cells; assay: Gene expression analysis (TaqMan real-time PCR) in airway epithelial cells; type: cell-based, human
Experimental: as §1, with “weekly. After NHBE differentiation in the microfluidic chips, primary HASM cells were seeded into the bottom compartment. Approximately 18 h before the live-cell micromechanical experiments using MTC, the culture medium of HASM cells was changed to serum-free minimal media (1:1 vol/vol mixture of DMEM Dulbecco's modified Eagle's medium and Ham's F-12 medium, supplemented with insulin […]), and cells were maintained at 37° C. in humidified air containing 5% CO2. The overnight media was then washed and replaced with fresh minimal media before the experiments. This minimal media procedure was applied to NHBE cells as well before compressive-stress application.” for “weekly.”

[3] = test system: NHBE cells; assay: PGE2 content of epithelial infranatant (EIA kit); type: cell-based, human; conditions: epithelial cells with or without compressive stress
Experimental: as §1, with “seeding.” for “seeding. After NHBE cells reached confluence (within 3-5 days), the apical medium was removed and the basal medium was replaced with differentiation medium (PneumaCult-ALI™ Medium and Supplements, StemCell Technologies). The NHBE cells were maintained at the ALI for 2-3 weeks, until they differentiated into a pseudostratified layer. Excess mucus on the air side was washed away with warm PBS weekly.”
Media from the basal compartments (infranatant) were collected from control samples or after application of 30 cmH2O compressive stress on NHBE cells, and were assayed for the presence of PGE2 using a commercial EIA kit (DetectX™ Prostaglandin E2 High Sensitivity Immunoassay Kit, Arbor Assays, Ann Arbor, Mich.) following the manufacturer's instructions. The absorbance in the samples was measured at 450 nm with a microplate reader (Molecular Devices, Sunnyvale, Calif.). […]

[4] = test system: primary ASM cells from asthmatic and non-asthmatic donors; assay: HASM stiffness measurements: drug-induced single-cell contraction or relaxation, asthmatic vs non-asthmatic ASM cells; type: cell-based, human
Experimental: Primary human epithelial and smooth muscle cells were harvested from the proximal airways (first through third order bronchi) of donor lungs unsuitable for transplantation (Table I) in accordance with the Institutional Review Boards at the University of Pennsylvania. Primary normal human bronchial epithelial (NHBE) cells were grown in collagen-coated flasks (GIBCO) using serum-free BEGM Bronchial Epithelial Cell Growth Medium™ with BulletKit™ Supplements (Lonza) and subsequently trypsinized and seeded onto porous polycarbonate membranes (either inside microfluidic devices or on transwell inserts) at 100,000 cells/cm^2. The polycarbonate membranes were coated with collagen type I (30 μg/ml; GIBCO) at 37° C. for 18 h before cell seeding. After NHBE cells reached confluence (within 3-5 days), the apical medium was removed and the basal medium was replaced with differentiation medium (PneumaCult-ALI™ Medium and Supplements, StemCell Technologies). The NHBE cells were maintained at the ALI for 2-3 weeks, until they differentiated into a pseudostratified layer. Excess mucus on the air side was washed away with warm PBS weekly. After NHBE differentiation in the microfluidic chips, primary HASM cells were seeded into the bottom compartment. Approximately 18 h before the live-cell micromechanical experiments using MTC, the culture medium of HASM cells was changed to serum-free minimal media (1:1 vol/vol mixture of DMEM Dulbecco's modified Eagle's medium and Ham's F-12 medium, supplemented with insulin […]), and cells were maintained at 37° C. in humidified air containing 5% CO2. The overnight media was then washed and replaced with fresh minimal media before the experiments. This minimal media procedure was applied to NHBE cells as well before compressive-stress application. For experiments involving Celecoxib or Verteporfin (Sigma Aldrich), NHBE cells were pre-treated with the drugs before the second washing step, as the presence of Celecoxib in the infranatant affected HASM mechanics (FIGS. 19A-B), and Verteporfin in the infranatant would have phototoxic effects on HASM cells during the live-cell micromechanical measurements. Since Verteporfin is a photosensitizer, treatment of NHBE cells was always performed in the dark.
Magnetic twisting cytometry with optical detection was used to quantitatively assess dynamic changes in cell stiffness as an indicator of single-cell contraction or relaxation of HASM cells, as previously described. In brief, ferrimagnetic microbeads (4.5 μm in diameter) coated with synthetic Arg-Gly-Asp (RGD) containing peptide (American Peptide Company) bound to the cytoskeleton through cell surface integrin receptors were magnetized horizontally. […] Lateral bead displacements in response to the resulting oscillatory torque were detected optically (in spatial resolution of ˜5 nm), and the ratio of specific torque to bead displacement was computed as the cell stiffness in units of Pascals (Pa) per nanometer. For drug-induced single-cell contraction or relaxation, changes in HASM stiffness were measured in real-time for the duration of 300 seconds. For each individual cell, the baseline stiffness was measured for the first 60 seconds, and after drug addition, the stiffness was measured continuously for the next 240 seconds.

[5] = test system: ASM cells in lung-chip co-culture with airway epithelial cells; assay: Lung-chip: ASM contraction after compressive stress on the epithelial layer (OMTC); type: cell-based, human; conditions: after 30 cmH2O compressive stress; 10 μM methacholine, followed by 1 μM PGE2
Experimental: The upper and lower layer of the microfluidic device were fabricated using standard soft lithography techniques by casting a flexible and optically transparent polydimethylsiloxane (PDMS) polymer on a mold and cross-linking at 80° C. for 2 hours. The mold was fabricated using optical lithography with an epoxy-based negative photoresist (SU8) that yields thick and robust structures. The two PDMS layers each had compartments with 5 mm width, 20 mm length, and 300 μm height, and around 100 support pillars with 200 μm diameter distributed across the compartments. The two compartments were separated by an optically-clear polycarbonate membrane (Sterlitech) with 5 μm diameter holes, allowing cells on both sides of the membranes to chemically interact. To construct the complete chip, first a PDMS layer and the polycarbonate membrane were exposed to an oxygen plasma (30 W, 700 mTorr, 30 sec) to chemically activate their surfaces. Immediately after the plasma treatment, the PDMS surface was silanized using 5 μl of an APTES solution (1% 3-aminopropyltriethoxysilane in water) and the polycarbonate membrane was allowed to bond to it. After 2 hours of bonding at room temperature, the process was repeated to bond the second PDMS compartment to the other side of the polycarbonate membrane. […]

[6] = test system: ASM cells in lung-chip; assay: Cell rheology measurements using the lung-chip platform (frequency-domain OMTC); type: cell-based, human; conditions: frequency-domain OMTC on lung-chip
Excerpt: Magnetic twisting cytometry with optical detection was used to quantitatively assess dynamic changes in cell stiffness as an indicator of single-cell contraction or relaxation of HASM cells, as previously described. In brief, ferrimagnetic microbeads (4.5 μm in diameter) coated with synthetic Arg-Gly-Asp (RGD) containing peptide (American Peptide Company) bound to the cytoskeleton through cell surface integrin receptors were magnetized horizontally. Subsequently, a vertically aligned homogeneous magnetic field varying sinusoidally in time applied an oscillatory torque, leading to both a rotation and a pivoting displacement of the bead (FIG. 18B). Measurements were performed at a single frequency of 0.75 Hz or oscillatory frequencies between 10^−1 and 10^3 Hz for cell rheology measurements (FIG. 21). Lateral bead displacements in response to the resulting oscillatory torque were detected optically (in spatial resolution of ˜5 nm), and the ratio of specific torque to bead displacement was computed as the cell stiffness in units of Pascals (Pa) per nanometer. For drug-induced single-cell contraction or relaxation, changes in HASM stiffness were measured in real-time for the duration of 300 seconds. For each individual cell, the baseline stiffness was measured for the first 60 seconds, and after drug addition, the stiffness was measured continuously for the next 240 seconds.

Compound: Verteporfin
- Effect of compressive stress on epithelial cells, read as ASM cell contraction in response to 0h and 3h-pressure epithelial samples [1]: abrogated the effects of compressive stress
- COX2 (PTGS2) mRNA expression ([2]; airway epithelial cells): downregulated COX2
- Regulation of COX1 and COX2 mRNA by compressive stress ([2]; airway epithelial cells, compressive stress): prohibited the downregulation of COX1 and upregulation of COX2 by compressive stress
- Upregulation of CTGF mRNA by compressive stress ([2]; epithelial cells): this upregulation was abrogated
- PGE2 content of the infranatants [3]: less PGE2 production and suppression of the effects of compressive stress

Compound: CC(=O)OC(C)C[N+](C)(C)C (stereo not shown) [methacholine]
- Stiffness change (contraction or relaxation), asthmatic compared with non-asthmatic ASM cells [4]: stronger contraction in asthmatic ASM cells
- ASM contraction in lung-chip after pressure turned off [5]: only slightly increased ASM contraction

Compound: CCCCC[C@H](O)/C=C/[C@H]1[C@H](O)CC(=O)[C@@H]1C/C=C\CCCC(=O)O [PGE2]
- Stiffness change (contraction or relaxation), asthmatic compared with non-asthmatic ASM cells [4]: asthmatic ASM cells relaxed more
- ASM response to agonist ([4]; different doses and different patient samples): consistently caused ASM relaxation
- ASM contraction in lung-chip after pressure turned off [5]: did not lead to relaxation

Compound: C=C1[C@@H](C)[C@H]2[C@H](Cc3ccccc3)NC(=O)[C@]23[C@H](OC(C)=O)/C=C/[C@@](C)(O)C(=O)[C@@H](C)C/C=C/[C@H]3[C@@H]1O [cytochalasin D]
- ASM cell stiffness [6]: reduces ASM cell stiffness
- Stress relaxation of ASM cells [6]: easier (faster) for the cells to relax stress

Compound: NCCc1c[nH]cn1 [Histamine, histamine]
- ASM cell stiffness [6]: increases ASM cell stiffness
- Stress relaxation of ASM cells [6]: more difficult (slower) for the cells to relax stress

Compound: CCCCC[C@H](O)/C=C/[C@@H]1[C@@H](C/C=C\CCCC(=O)O)[C@@H](O)C[C@H]1O [PGF2α]
- Stiffness change (contraction or relaxation), asthmatic compared with non-asthmatic ASM cells [4]: did not yield a difference in response between asthmatic and non-asthmatic ASM cells

Compound: CC(C)NCC(O)c1ccc(O)c(O)c1 (stereo not shown) [isoproterenol]
- Stiffness change (contraction or relaxation), asthmatic compared with non-asthmatic ASM cells [4]: less relaxation in asthmatic ASM cells
